Assay results: patent US20060270614A1, “Use of chalcones for the treatment of viral disorders” (priority 2005, published 2006)
Like-named read-outs stand apart in the source and are kept apart here.

Tested on: HSV-1
Assay: HSV-1 assay: CPE inhibition in Vero cells, MTS dye uptake
Type: cell-based, herpes simplex virus-1
Conditions: read-out: IC50 (inhibitory concentration at which the compound provides 50% CPE reduction)
Description: In vitro evaluation of anti-viral activity can be determined by plaque reduction as reported in J. Nat. Prod. (1990) 53, 340-344; or as described in Example 1. To pre-grown Vero cells (ATCC CCL-81 is added a virus suspension (ATCC VR-260) mixed with complete medium containing various concentrations of the test compound and the mixture is incubated until maximum cytopathic effect (CPE) is observed in the untreated virus control culture. The CPE inhibition is determined by adding a dye (MTS, (3-[4,5-dimethylthiazol-2-yl-5]-[3-carboxymethyoxyphenyl]-2-[4-sulfophenyl]-2H tetrazolium)) uptake procedure (Promega's Cell Titer Aqueous One Solution). This method measures cell viability and is based on the reduction of the tetrazolium-based MTS by mitochondrial enzymes of viable host cells to MTS formazan. The purple color of the MTS formazan is then measured spectrophotometrically. The optical density (OD) value of each culture is a function of the amount of formazan produced which is proportional to the number of viable cells.
Vero cells (ATCC CCL-81) are pregrown in 96-well tissue culture plates using Dulbecco's Modified Eagle's Medium (DMEM) supplemented with 10% heat-inactivated fetal bovine serum (FBS), L-Glutamine, penicillin, and streptomycin.
To each of the replicate cell cultures is added 50 μL of the test article solution and 50 μL of virus suspension (ATCC VR-260). The multiplicity of infection used is about 0.05 plaque-forming unit (PFU) per cell. Cell controls containing medium alone, virus-infected controls containing medium and virus, drug cytotoxicity controls containing medium and each drug concentration, reagent controls containing culture medium only (no cells), and the test article colorimetric controls containing the test article and medium (no cells) are run simultaneously with the test samples. The plates are incubated at 37° C. in a humidified atmosphere containing 5% CO2 until maximum CPE (cytopathic effect) is observed in the untreated virus control cultures (Day 5).
CPE inhibition is determined by a dye (MTS) uptake procedure (Promega's Cell Titer Aqueous One Solution). This method measures cell viability and is based on the reduction of the tetrazolium-based MTS by mitochondrial enzymes of viable host cells to MTS formazan. MTS (10 μl) is added to each of the plate wells. The plates are incubated at 37° C. for 4 hours. The purple color of the MTS formazan is then measured spectrophotometrically at 490/650 nm. The optical density (OD) value of each culture is a function of the amount of formazan produced which is proportional to the number of viable cells.
The percent of CPE (cytopathic effect) reduction of the virus-infected wells (antiviral efficacy) and the percent cell viability of uninfected drug control wells (cytotoxicity) are calculated. […]

[1] = Human alphaherpesvirus 1, 120 h, Vero cells (ATCC CCL-81), virus ATCC VR-260, about 0.05 PFU per cell, Day 5, MTS

| IC50 [1] | SMILES | IC50 (Human alphaherpesvirus 1, Vero, 120 h) |
| --- | --- | --- |
| 26.6 µM | O=C(/C=C/c1ccc(O)c(O)c1)c1ccc(O)cc1O [2′,3,4,4′-Tetrahydroxychalcone] |  |
|  | COc1ccc(/C=C/C(=O)c2ccc(O)cc2O)cc1OC [2′,4′-Dihydroxy-3,4-dimethoxychalcone] | 8.36 µM |
| 11.1 µM | COc1ccc(/C=C/C(=O)c2ccc(O)cc2O)cc1 [2′,4′-Dihydroxy-4-methoxychalcone] |  |
| > 100 µM | O=C1/C(=C/c2ccc(O)c(O)c2)Oc2cc(O)ccc21 [(Z)-2-(3,4-Dihydroxybenzylidene)-6-hydroxybenzofuran-3(2H)-one, reference compound] |  |
